Reference: patent EP1243271A1, “NASAL DROPS CONTAINING FUSED PYRIDAZINE DERIVATIVES” (Takeda Chemical Industries, Ltd., priority 1999, dated 2001)

What was measured:
guinea pig = assay: Effect on intranasal pressure and pituita (nasal) secretion after histamine aerosol, nasal administration; type: in vivo
Procedure: Animals were anesthetized with pentobarbital sodium (30 mg/kg, i.p.), and the compound of Reference Example B135 and solvent (0.1% sodium dihydrogenphosphate + 0.1% Tween 80) were administered into the both nasal cavities of guinea pig in 20 µL. The animals underwent the following test in about 0.5 hour.
The animals under anesthesia was held in the supine position. The neck was opened by median incision to expose the air tube. For maintenance of respiration, a polyethylene tube was inserted down into the air tube. Another polyethylene tube was inserted from the air tube incision into the rhinopharynx, and connected to a respirator via a silicon tube, through which the air was supplied into the nasal cavity at a volume of 4 mL/stroke and a frequency of 70 strokes/min. To prevent the air leak into the oral cavity, incisive canal was closed with Aron alfa A (trademark, Sankyo, Tokyo). The intranasal pressure was measured with a transducer connected to a side branch of the tube inserted into the nasal cavity. Histamine 1000 µg/mL solution was aerosolized using an ultrasonic nebulizer provided between the respirator and the tube in the nasal cavity, and the air was supplied into the nasal cavity for 3 minutes. After the histamine air supply, the intranasal pressure was depicted on an oscillograph for 15 minutes and the area under the curve was determined.
The pituita flowed out from the nasal cavity or pooled in the nasal cavity during the 15 minutes after histamine air supply was wiped with a cotton swab, which was weighed on an electronic weighing machine.
Where necessary, aerosolized physiological saline as a negative control was supplied into the nasal cavity, and the intranasal pressure and nasal secretion were measured.

histamine H1 receptor = biological target: T1, histamine H1 receptor (Cavia porcellus, UniProt P31389); assay: Penetrability into the brain: ex vivo binding test with tritium-labeled pyrilamine in brain and lung membrane fractions; design: species or system guinea pigs
T1 construct: The cerebral cortex and lung tissues were removed and homogenized in phosphate buffer solution; from tissue; host or cells: cerebral cortex and lung crude membrane fractions of male Hartley guinea pigs
Procedure: The compound of Reference Example B135 was orally administered (10 or 100 mg/kg) to male Hartley guinea pigs and, one hour later, the guinea pigs were slaughtered by decapitation. The cerebral cortex and lung tissues were removed and homogenized in phosphate buffer solution, followed by centrifugation at 4°C and 1000×g for 10 minutes. The supernatant was further centrifuged at 5000×g for 10 minutes to give crude membrane fractions. The membrane fractions were suspended in a buffer and, after adjusting the protein concentration to 1.0 mg/mL, subjected to binding test with tritium-labeled pyrilamine (2 nM). The inhibitory action on ex vivo binding test measured specific binding of pyrilamine in the brain and lung membrane fractions was calculated and used as an index of selectivity to peripheral histamine H1 receptor in the body upon oral administration of the agent.

Male Hartley guinea pigs = assay: Effect on histamine-induced increases in microvascular permeability in skin in guinea pigs; type: in vivo; conditions: Cavia porcellus; 3 mg/kg oral administration 1 hour before histamine; guinea pig skin
Procedure: Male Hartley guinea pigs weighing about 500 g were used. After the dorsal hair was shaved under ether anesthesia, 1 ml of a 2.5% pontamine sky blue solution was injected intravenously, and then 0.1 ml of histamine at 3 µg/ml was injected intradermally into 2 sites (left and right) in the back. Thirty minutes after the injection of histamine, animals were fainted by knocking in the head, decapitated and killed by bleeding, after which the skin of the back was removed. The long and short diameters (mm) of each blue spot were measured and multiplied; the mean product was taken as the vascular permeability index. Test compounds were suspended in a 5% gum arabic solution and orally administered in a volume of 0.2 ml/100 g body weight at 1 hour before histamine administration. Animals in the control group received the same volume of a 5% gum arabic solution. Equation 1 Inhibition (%) of histamine-induced increases in microvascular permeability in skin = 100 × (1-vascular permeability index in the presence of drug/vascular permeability index in control group) [formula]

[1] = 0.1% solution, nasal, 20 µL, histamine 1000 µg/mL aerosol
[2] = 1.0% solution, nasal, 20 µL, histamine 1000 µg/mL aerosol

T1 sequence (P31389 whole entry): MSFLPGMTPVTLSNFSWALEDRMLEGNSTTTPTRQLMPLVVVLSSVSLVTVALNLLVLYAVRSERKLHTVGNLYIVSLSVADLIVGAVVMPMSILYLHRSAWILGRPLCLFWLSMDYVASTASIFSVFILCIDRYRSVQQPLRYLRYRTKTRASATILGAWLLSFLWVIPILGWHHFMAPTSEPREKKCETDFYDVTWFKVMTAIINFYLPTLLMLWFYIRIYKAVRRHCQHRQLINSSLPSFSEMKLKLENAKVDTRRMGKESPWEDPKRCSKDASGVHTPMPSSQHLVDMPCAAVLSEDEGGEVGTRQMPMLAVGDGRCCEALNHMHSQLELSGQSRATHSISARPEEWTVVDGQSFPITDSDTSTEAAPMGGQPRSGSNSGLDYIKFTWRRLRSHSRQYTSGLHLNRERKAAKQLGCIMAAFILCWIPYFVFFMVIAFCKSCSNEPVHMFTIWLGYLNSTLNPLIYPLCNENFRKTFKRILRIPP

In the case of CC(C)(C(=O)O)c1cn2nc(NCCCN3CCC(OC(c4ccccc4)c4ccccc4)CC3)ccc2n1.O.O [Reference Example B135, 2-[6-[3-[4-(diphenylmethoxy)piperidino]-propylamino]imidazo[1,2-b]pyridazin-2-yl]-2-methylpropionic acid dihydrate], the “percent inhibition of increase in intranasal pressure by nasal administration of 0.1% solution” value (guinea pig; [1]) is reported as 70%, the “percent inhibition of nasal secretion by nasal administration of 0.1% solution” value (guinea pig; [1]) is reported as 72% and the “percent inhibition of increase in intranasal pressure by nasal administration of 1.0% solution” value (guinea pig; [2]) is reported as 62%. For the same molecule, the “percent inhibition of nasal secretion by nasal administration of 1.0% solution” value (guinea pig; [2]) was 78%, the “increase in the intranasal pressure and nasal secretion” value (guinea pig; conclusion from Tables 3 and 4) was “reduced increase in the intranasal pressure and nasal secretion” and the “penetrability into the brain” value (histamine H1 receptor; conclusion from Tables 5 and 6) was “poor penetrability into the brain”. The “percent inhibition of specific binding of membrane fraction pyrilamine in brain” value (histamine H1 receptor; oral administration of 10 mg/kg, one hour later, brain (cerebral cortex)) was -2.9%, the “percent inhibition of specific binding of pyrilamine in lung membrane fraction” value (histamine H1 receptor; oral administration of 10 mg/kg, one hour later) was 95% and the “percent inhibition of specific binding of pyrilamine in brain membrane fraction” value (histamine H1 receptor; oral administration of 100 mg/kg, one hour later, brain (cerebral cortex)) was 44%. The “percent inhibition of specific binding of pyrilamine in lung membrane fraction” value (histamine H1 receptor; oral administration of 100 mg/kg, one hour later) was 95% and the inhibition in vivo at 3 mg/kg (Male Hartley guinea pigs) was 91%.
